Assays:
tumor models = experiment: drug efficacy of PI3K pathway agents with modulation of glucose metabolism in murine tumor models; format: in vivo, mice
[1] = tested on: MLL-AF9 driven Acute Myeloid Leukemia; experiment: syngeneic model of AML treated with BKM120 and ketogenic diet; format: in vivo, mice; settings: BKM120 with ketogenic diet started before or with BKM120
Procedure: For AML studies, 10-12 weeks old male C57BL/6J mice were used for MLL-AF9 Ds-Red AML study (Approved protocol AC-AAAQ5405). For pre-treatment study with MLL-AF9 Ds-Red cells, keto and Keto/BKM group mice were given a ketogenic diet for 10 days prior to injection with MLL-AF9 Ds-Red cells (2×10^5 per mouse in 200 ul) via lateral tail vein. The day after iv injection, the mice were given 0.5% carboxymethyl cellulose (CMC) as vehicle control or BKM120 (37.5 mg/kg) by oral gavage for two weeks (5 out of 7 days). The mice were euthanized after two-week treatment to check the bone marrow for AML progress. The tumor progress was also monitored via IVIS spectrum machine.
For co-current treatment studies with MLL-AF9 Ds-Red cells, the mice were injected with MLL-AF9 Ds-Red cells (2×10^5 per mouse in 200 ul) via lateral tail vein. The day after iv injection, the mice were given vehicle or BKM120 (37.5 mg/kg) by oral gavage for two weeks. The Keto or Keto/BKM group were changed to a ketogenic diet on the same day. The mice were euthanized after two-week treatment to check the bone marrow for AML progress.
To check if Keto/BKM treatment affects the AML engraftment, Keto and Keto/BKM group mice were given a ketogenic diet for 10 days, then treated with vehicle or BKM120 by oral gavage for two weeks. […]

KPC allografts = KPC allografts treated with BKM120 and OSI-906; format: in vivo, mice; settings: BKM120 combined with OSI-906, vs either drug alone
[2] = tested on: PIK3CA+MYC mutant murine breast tumor allografts, ES-278; experiment: ES-278 breast tumor allografts with or without keto diet; format: in vivo, mice; settings: combined with ketogenic diet
Source text: For solid tumor studies, Nude (genotype) and C57/BL6 mice were purchased at 8 weeks of age from Jackson laboratories (Bar Harbor, ME).

IGF1R/INSR = settings: from Selleck Chem website; read-out: IC50 of primary target; cited from earlier work
[3] = tested on: ES272 Pik3ca mutant breast cancer allograft; experiment: Pik3ca mutant breast allografts, ketogenic diet, BYL-719 and exogenous insulin; format: in vivo, mice; settings: 0.4 mU insulin 15 minutes after each dose of PI3K inhibitor
Procedure: To further test whether the improved response to PI3K inhibitors while on a ketogenic diet is a consequence of lowering blood insulin levels, the inventors attempted to “rescue” the PI3K reactivation using exogenous insulin. A cohort of the mice bearing Pik3ca mutant breast allografts were treated with the combination of a ketogenic diet and BYL-719, and then given 0.4 mU of insulin 15 minutes after each dose of PI3K inhibitor (FIG. 4B).

[4] = tested on: MDA-MB-468 breast cancer cells; experiment: proliferation in minimal growth media with BKM120 and insulin; format: cell-based, Human; settings: insulin 10 ng/ml
[5] = tested on: BT-549 breast cancer cells; experiment: as above; format: cell-based, Human; settings: insulin 10 ng/ml
KPC cells = experiment: signaling and proliferation of KPC cells with PI3K inhibitor and insulin; format: cell-based, Mouse
Procedure: To test whether or not these spikes in insulin were stimulating PI3K signaling in the context of PI3K inhibition, KPC cells were treated in vitro with the PI3K inhibitors in the presence or absence of 10 ng/ml insulin, the level observed in the mice within 15-30 min after drug administration (FIG. 1D).
For signaling assays, cells were washed 1× in PBS and placed in starvation media (−FBS) for 6-18 hours depending upon cell line and treated 1 hour prior to harvesting with PI3K inhibitors as indicated alone or in combination with insulin 10 minutes prior to harvesting. Three-dimensional culture and dose response experiments of patient derived organoids were run as previously described. In brief, ˜1000 cells were plated in 10 ul of 1:1 matrigel to culture media in 96 well angiogenesis plates and allowed to solidify for 30 min at 37 degrees before 70 ul of culture media was added. Organoids were then treated in triplicate in a log scale dose response and CellTiter-Glo assay (Promega) was run at 96 hours to determine the IC50 values. Knockdown of insulin receptor was achieved using a doxycycline inducible shRNA strategy. For generation of miR-E shRNAs, 97-mer oligonucleotides were purchased (IDT Ultramers) coding for predicted shRNAs using an siRNA predictional tool Splash RNA (see website at splashrna.mskcc.org/).

[6] = tested on: HCT116 PTEN knockout (KO) cells; experiment: proliferation with PI3K inhibitors and insulin; format: cell-based, Human; settings: insulin 10 ng/ml in presence of PI3K inhibitors GDC-0032, BYL-719
[7] = tested on: PC-3 prostate adenocarcinoma cells; experiment: proliferation in minimal growth media with BKM120 and insulin; format: cell-based; settings: insulin 10 ng/ml
KPC allografted tumors = format: in vivo; settings: insulin added to ketogenic diet plus BYL-719
AKT1/2/3 = settings: from Selleck Chem website; read-out: IC50 of primary target; cited from earlier work
KPC K8484 tumors = experiment: KPC K8484 allografts treated with BYL-719 alone or combined: tumor response and survival; format: in vivo, mice
[8] = tested on: syngeneic K8484 KPC allografted tumors; experiment: glucose/insulin feedback after single dose of BKM120 in mice with KPC allografts; format: in vivo; settings: pretreatment before a single treatment with BKM120; for insulin released in response to BKM120 (c-peptide): c-peptide after 3 hours; for growth signaling through mTORC1 in the tumor (pS6): tumors harvested at 90 minutes
SGLT-2 = SGLT-2 (Homo sapiens (Human), UniProt P31639); settings: read-out: IC50 of primary target; from Selleck Chem website; cited from earlier work

In the case of `Cc1c(CN2CCN(C(=O)[C@H](C)O)CC2)sc2c(N3CCOCC3)nc(-c3cnc(N)nc3)nc12` [Apitolisib], the drug efficacy (tumor models) is reported as “improved drug efficacy”.
With `COc1c(OCCCN2CCOCC2)ccc2c1N=C(NC(=O)c1cnc(N)nc1)N1CCN=C21` [Copanilisib, Copanlisib] the drug efficacy (tumor models) was “improved drug efficacy”.
In the case of `Nc1cc(C(F)(F)F)c(-c2cc(N3CCOCC3)nc(N3CCOCC3)n2)cn1` [Buparlisib], the “efficacy (survival)” value [1] is reported as “significantly enhanced”, the “growth of KPC allografts” value (KPC allografts) is reported as “more effective response on the growth of KPC allografts than either drug alone” and the drug efficacy (tumor models) is reported as “improved drug efficacy”.
For `C[C@]1(O)C[C@@H](c2nc(-c3ccc4ccc(-c5ccccc5)nc4c3)c3c(N)nccn32)C1` [Linsitinib], the “treatment efficacy (tumor volume)” value [2] is given as “significantly improved” and the IC50 (IGF1R/INSR) is given as 35 nM.
With `CS(=O)(=O)N1CCN(Cc2cc3nc(-c4cccc5[nH]ncc45)nc(N4CCOCC4)c3s2)CC1` [Pictilisib] the drug efficacy (tumor models) was “improved drug efficacy”.
For insulin, the “therapeutic benefit of ketogenic diet plus BYL-719” value [3] was “dramatically reduced the therapeutic benefit”, the “growth (proliferation)” value [4] was “partially rescued” and the “growth (proliferation)” value [5] was “partially rescued”. The “PI3K signaling (pAKT, pS6)” value (KPC cells; 10 ng/ml insulin in continued presence of PI3K inhibitors) was “partially rescue PI3K signaling”, the cellular proliferation (KPC cells; 10 ng/ml insulin with BKM120 (1 uM)) was “partial recovery of cellular proliferation” and the “proliferation (percent confluence)” value [6] was “restore normal proliferation”. For the same molecule, the “growth (proliferation)” value [7] was “partially rescued” and the tumor growth (KPC allografted tumors) was “rescued tumor growth”.
In the case of `NC1(c2ccc(-c3nc4ccn5c(=O)[nH]nc5c4cc3-c3ccccc3)cc2)CCC1` [MK2206], the IC50 (AKT1/2/3) is listed as 8 nM.
With `Cc1nc(NC(=O)N2CCC[C@H]2C(N)=O)sc1-c1ccnc(C(C)(C)C(F)(F)F)c1` [Apelisib, Alpelisib] the “response of KPC allografts” value (KPC K8484 tumors; BYL-719 combined with metformin, SGLT2i or ketogenic diet, concordant with ability to reduce serum insulin) was “enhanced response of KPC allografts” and the drug efficacy (tumor models) was “improved drug efficacy”.
For `Cc1ccc([C@@H]2O[C@H](CO)[C@@H](O)[C@H](O)[C@H]2O)cc1Cc1ccc(-c2ccc(F)cc2)s1` [Conagliflozin, Canagliflozin], the overall survival (KPC K8484 tumors; added to treatment with BYL-719, vs BYL-719 alone) was “increases overall survival”, the “PI3K inhibitor-induced elevation in blood glucose (hyperglycemia)” value [8] was “decreased the resulting hyperglycemia” and the “insulin released in response to BKM120 (c-peptide)” value [8] was “reduced the total insulin that was released”. For the same molecule, the “growth signaling through mTORC1 in the tumor (pS6)” value [8] was “reduced signaling through mTORC1 in the tumor”.
For `Cc1nc(-c2cn3c(n2)-c2ccc(-c4cnn(C(C)(C)C(N)=O)c4)cc2OCC3)n(C(C)C)n1` [Taselisib], the “treatment efficacy (tumor volume)” value [2] was “significantly improved” and the drug efficacy (tumor models) was “improved drug efficacy”.
With `CN(C)C(=N)NC(=N)N` [metformin, Metformin] the “PI3K inhibitor-induced elevation in blood glucose (hyperglycemia)” value [8] was “only minimal impact”, the “insulin released in response to BKM120 (c-peptide)” value [8] was “only minimal impact” and the “growth signaling through mTORC1 in the tumor (pS6)” value [8] was “only minimal impact”.
For `Cc1ccc([C@@H]2OC(CO)[C@@H](O)C(O)C2O)cc1Cc1ccc(-c2ccc(F)cc2)s1` (some centres unmarked) [Conagliflozin, Canagliflozin], the IC50 (SGLT-2) is listed as 2.2 nM.
